Experimental data as given in USRE40851E1, “3,3-diphenylpropylamines, their use and preparation” (Pfizer Health AB, priority 1992, dated 2009).
Where a name gives a salt, the structure may show the parent alone.

What was measured:
[1] = molecular target: muscarinic receptor (urinary bladder); assay: Muscarinic receptor binding, (−)3H-QNB competition, urinary bladder homogenate; conditions: guinea pig urinary bladder, 2 nM (−)3H-QNB, 25° C., 60 minutes
Method: (§1) The tissue preparations and the general methods used have been described in detail elsewhere for the parotid gland^1, urinary bladder^2, heart^3 and cerebral cortex^3, respectively. Male guinea pigs (250-400 g body weight) were killed by a blow on the neck and exsanguinated. The brain was placed on ice for dissection of the cerebral cortex (grey matter only). Urinary bladders, hearts and parotid glands were dissected in a Krebs-Henseleit buffer (pH 7.4) containing 1 mM phenyl methyl sulfonyl fluoride (PMSF, a protease inhibitor). Dissected tissues were homogenized in an ice-cold sodium-potassium phosphate buffer (50 mM, pH 7.4) containing 1 mM PMSF, using a Polytron PT-10 instrument (bladder, heart, parotid) and a Potter-Elvehjem Teflon homogenizer (cortex). All homogenates were finally diluted with the ice-cold phosphate/PMSF buffer to a final protein concentration of ≦0.3 mg/ml and immediately used in the receptor binding assays. Protein was determined by the method of Lowry et al. (1951)^4, using bovine serum albumin as the standard.
(§2) The muscarinic receptor affinities of the unlabelled compounds A to D identified above were derived from competition experiments in which the ability to inhibit the receptor specific binding of (−)^3H-QNB (1-quinuclidinyl[phenyl-4-^3H]benzilate, 32.9 Ci/mmole) was monitored as previously described^3,5. Each sample contained 10 μl of (−)^3H-QNB (final concentration 2 nM), 10 μl solution of test compound and 1.0 ml tissue homogenate. Triplicate samples were incubated under conditions of equilibrium, i.e., at 25° C. for 60 minutes (urinary bladder), 80 minutes (heart and cerebral cortex) or 210 minutes (parotid gland), respectively. Non-specific binding was determined in the presence of 10 μM unlabelled atropine. Incubations were terminated by centrifugation^2, and the radioactivity in the pellets was determined by liquid scintillation spectrometry^2.
(§3) IC50-values (concentration of unlabelled compound producing 50% inhibition of the receptor specific (−)^3H-QNB binding) were graphically determined from the experimental concentration-inhibition curves. Affinities, expressed as the dissociation constants Ki, were calculated by correcting the IC50 for the radioligand-induced parallel shift and differences in receptor concentration, using the method of Jacobs et al. (1975)^6. The binding parameters for (−)^3H-QNB (KD and receptor densities) used in these calculations were determined in separate series of experiments^1-3.

[2] = molecular target: muscarinic receptor (cerebral cortex); assay: Muscarinic receptor binding, (−)3H-QNB competition, cerebral cortex homogenate; conditions: guinea pig cerebral cortex, 2 nM (−)3H-QNB, 25° C., 80 minutes
Method: as §1, §2, §3

[3] = molecular target: Smooth muscle strips of the urinary bladder (carbachol contraction); assay: Functional in vitro study: antagonism of carbachol-induced contraction of urinary bladder smooth muscle strips; conditions: guinea pig urinary bladder strips, carbachol agonist, 60 min incubation with antagonist; read-out: KH bladder
Method: Male guinea pigs, weighing about 300 g, were killed by a blow on the neck and exsanguinated. Smooth muscle strips of the urinary bladder were dissected in a Krebs-Henseleit solution (pH 7.4). The strip preparations were vertically mounted between two hooks in thermostatically controlled (37° C.) organ baths (5 ml). One of the hooks was adjustable and connected to a force transducer (FT 03, Grass Instruments). The Krebs-Henseleit solution was continuously bubbled with carbogen gas (93.5% O2/6.5% CO2) to maintain the pH at 7.4. Isometric tension was recorded by a Grass Polygraph (Model 79D). A resting tension of approximately 5 mN was initially applied on each muscle strip and the preparations were allowed to stabilize for at least 45 min. The resting tension was repeatedly adjusted and the preparations were washed several times during the stabilization period.
Carbachol (carbamylcholine chloride) was used as the standard agonist. In each experiment, the viability of the preparations and the reproducibility of their contractile responses were initially tested by three consecutive additions of a submaximal concentration (3×10^−6M) of carbachol. A complete concentration-response curve to carbachol was then generated by cumulative addition of carbachol to the organ-bath (i.e., stepwise increase of the agonist concentration until the maximal contractile response was reached), followed by washing out and a resting period of at least 15 min. before a fix concentration of the test compound (antagonist) was added to the organ-bath. After 60 min. of incubation with the antagonist, a second cumulative concentration-response curve to carbachol was generated. Responses were expressed as per cent of the maximal response to carbachol. EC50-values for carbachol in the absence (control) and presence of antagonist were graphically derived and dose ratios (r) were calculated. Dissociation constants, KB, for the antagonists were calculated using equation (1)^7, where [A] is the concentration of test compound. KB=[A]/r−1 (1)

[4] = Functional in vivo study in anaesthetized cats: blood pressure, blood flow, heart rate; conditions: cat
Method: (§4) Adult cats were anaesthetized with mebumal (42 mg/kg) intraperitoneally. When the animal was asleep, an infusion cannula was inserted into the foreleg vein and the cat was given alpha-chloralose. During the experiment the animal was placed on an operation table warmed up with a feedback controlled electric pad. The cat was tracheotomized. For blood pressure registration, a polyethylene catheter was inserted into the femoral artery, with the tip in aorta, and connected via a three-way stopcock to a blood pressure transducer and a Grass polygraph. Heart rate was registered by connecting a tachograph to a driver amplifier which received the signal from the blood pressure transducer. Blood flow in the central mesenteric artery was measured by an ultrasound flow probe around the artery connected to a transonic blood flow meter and then to a Grass polygraph for registration of the flow. For infusion of the test substances, compounds D and A (as identified above), a polyethylene catheter was inserted into the femoral vein three-way stopcock to a syringe placed in an infusion pump (Sage instrument).
Through an incision in the proximal urethra, a catheter was inserted into the urinary bladder. At the beginning of each experiment, this catheter was connected to an open vessel, which was filled with 38° C. tempered physiological saline and placed above the animal. During this stabilization period the bladder relaxed, leading to a filling of the bladder with saline, under constant hydrostatic pressure. After the stabilization period, the bladder catheter was connected to a pressure transducer, for registration of intravesical pressure. Blood pressure, heart rate, blood flow and bladder pressure were recorded simultaneously and continuously throughout the experiment. The animals were left for at least 45 minutes to achieve steady state in cardiovascular variables before starting the experiment.
Bladder pressure was measured at 8 minutes after the end of infusion of the test substance. The surgical preparation was tested by intravenous injection of 0.25 μg/kg b.w. of noradrenalin and 0.5 μg/kg b.w. of acetylcholine.
To study the dose-response relationship of compound D identified above, the substance was administered at the doses 0.000 (physiological saline), 0.003, 0.010, 0.030 and 0.100 mg/kg, respectively, with infusion during 2 minutes and an infusion volume of 1 mL/kg. Every cat got all doses and was left to reestablish at least 45 minutes between the 0.003 and 0.010 mg/kg doses, and 60 minutes between the 0.030 and 0.100 mg/kg doses.
(§5) The results are presented in absolute values and calculated as mean value±standard deviation

[5] = test system: acetylcholine-induced effect on the bladder; assay: Functional in vivo study in anaesthetized cats: bladder pressure; conditions: cat, intravenous infusion
Method: as §4, with “For infusion of the test substances, compounds D and A (as identified above), a polyethylene catheter was inserted into the femoral vein three-way stopcock to a syringe placed in an infusion pump (Sage instrument).” left out
Through an incision in the proximal urethra, a catheter was inserted into the urinary bladder. […] Blood pressure, heart rate, blood flow and bladder pressure were recorded simultaneously and continuously throughout the experiment. […]
Bladder pressure was measured at 8 minutes after the end of infusion of the test substance. […]
as §5

[6] = intravenous, highest dose (0.3 mg/kg)

| Structure (SMILES) | Ki [1] [nM] | Ki [2] [nM] | Kd [3] [nM] | increase of diastolic blood pressure ([4]; intravenous, 0,3 mg/kg) [%] | increase of systolic blood pressure ([4]; intravenous, 0,3 mg/kg) [%] | increase of the blood flow in superior mesenterica artery ([4]; intravenous, 0.003 mg/kg) [%] | increase of the blood flow in superior mesenterica artery ([4]; intravenous, 0.01 mg/kg) [%] | increase of the blood flow in superior mesenterica artery ([4]; intravenous, 0.03 mg/kg) [%] | effect on the blood pressure ([4]; intravenous, doses other than 0,3 mg/kg) | decrease of heart rate [4, 6] [%] | increase in blood flow [4, 6] [%] | inhibition of the acetylcholine-induced effect on the bladder (bladder pressure) ([5]; bladder pressure 8 minutes after end of infusion) | efficiency of bladder pressure inhibition relative to prior art compound A ([5]; versus compound A) |
| --- | --- | --- | --- | --- | --- | --- | --- | --- | --- | --- | --- | --- | --- |
| Cc1ccc(O)c(C(CCN(C(C)C)C(C)C)c2ccccc2)c1 (single isomer, unassigned; (+)) [(A), (+)N,N-diisopropyl-3-(2-hydroxy-5-methylphenyl)-3-phenylpropylamine, hydrochloride] | 2.7 | 0.8 | 3 |  |  |  |  |  |  |  |  |  |  |
| CC(C)N(CCC(c1ccccc1O)c1ccccc1O)C(C)C [(B), N,N-diisopropyl-3-bis-(2-hydroxyphenyl)propylamine hydrochloride] | 10.2 | 1.5 |  |  |  |  |  |  |  |  |  |  |  |
| CC(C)N(CCC(c1ccccc1O)c1cc(Cl)ccc1O)C(C)C (single isomer, unassigned; (+)) [(C), (+)N,N-diisopropyl-3-(5-chloro-2-hydroxyphenyl)-3-(2-hydroxyphenylpropylamine, hydrochloride] | 2.5 | 0.4 | 2.6 |  |  |  |  |  |  |  |  |  |  |
| CC(C)N(CCC(c1ccccc1)c1cc(CO)ccc1O)C(C)C (stereo not drawn) [(D), (+)-N,N-diisopropyl-3-(2-hydroxy-5-hydroxymethylphenyl)-3-phenylpropylamine(+)mandelic acid salt] | 4.5 | 0.7 | 4.1 | 10 | 6 | 8 | 17 | 21 | little or no effect | 9 | 10 | dose-dependent inhibition | about ten times more efficient |
